Reference: PubChem BioAssay AID264 (DTP/NCI, 2004)
Where “and” joins values, the source holds several entries; their conditions need not be identical. Equal entries are not always repeated. Inconclusive results are not listed.

System: nude mice, LX-1 lung xenograft intrarenal, tumor weight T/C
Experiment: NCI In Vivo Anticancer Drug Screen. Data for tumor model Human Lung LX-1 Xenograft (intrarenal inoculation) in NU/NU Swiss (nude) mice
Details: endpoint: mean tumor weight change, higher = larger tumour
Procedure, shortened: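 Compound-treated mice carrying transplanted tumors were compared with vehicle-treated controls. Tumor size was the measured end point, and the value is the treated-group measurement divided by the control-group measurement (T/C).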

[1] = dose: 50.0 mg/kg/injection, schedule: Q04DX003 (sc), vehicle: saline with Tween-80
[2] = dose: 100.0 mg/kg/injection, schedule: Q04DX003 (sc), vehicle: saline with Tween-80
[3] = dose: 400.0 mg/kg/injection, schedule: Q04DX003 (sc), vehicle: saline with Tween-80

## N#CC(=C1SCS1)[N+](=O)[O-]
dose: 6.0 mg/kg/injection, schedule: Q04DX003 (sc), vehicle: saline
  T/C: 79 % of control
dose: 12.0 mg/kg/injection, schedule: Q04DX003 (sc), vehicle: saline
  T/C: 103 % of control
dose: 24.0 mg/kg/injection, schedule: Q04DX003 (sc), vehicle: saline
  T/C: 109 % of control
dose: 48.0 mg/kg/injection, schedule: Q04DX003 (sc), vehicle: saline
  T/C: 94 % of control

## COc1ccc2c(NCCCCCCCCNc3c4ccccc4nc4cc(OC)ccc34)c3ccccc3nc2c1
dose: 2.0 mg/kg/injection, schedule: Q04DX003 (sc), vehicle: suspension in saline
  T/C: 96 % of control
dose: 16.0 mg/kg/injection, schedule: Q04DX003 (sc), vehicle: suspension in saline
  T/C: 64 % of control

## COc1cc2c(c(OC)c1OC)-c1c(cc3c(c1OC)OCO3)CC(C)C(C)(O)C2OC(=O)c1ccccc1 (centres undefined)
dose: 300.0 mg/kg/injection, schedule: Q04DX003 (sc), vehicle: saline + alcohol
  T/C: 65 % of control
dose: 600.0 mg/kg/injection, schedule: Q04DX003 (sc), vehicle: saline + alcohol
  T/C: 107 % of control
dose: 1200.0 mg/kg/injection, schedule: Q04DX003 (sc), vehicle: saline + alcohol
  T/C: 108 % of control
dose: 2400.0 mg/kg/injection, schedule: Q04DX003 (sc), vehicle: saline + alcohol
  T/C: 77 % of control

## CC1OC(OC2CC(O)(C(=O)CO)Cc3c(O)c4c(c(O)c32)C(=O)c2ccccc2C4=O)CC(N)C1O (centres undefined)
dose: 0.5 mg/kg/injection, schedule: Q01DX010 (sc), vehicle: water
  T/C: 57 % of control
dose: 1.0 mg/kg/injection, schedule: Q01DX010 (sc), vehicle: water
  T/C: 83 % of control

## Cc1cc(O)c(N=Nc2ccc(C(=O)O)cc2)cc1C
dose: 100.0 mg/kg/injection, schedule: Q01DX010 (sc), vehicle: saline with Tween-80
  T/C: 77 % of control
dose: 200.0 mg/kg/injection, schedule: Q01DX010 (sc), vehicle: saline with Tween-80
  T/C: 67 % of control
dose: 400.0 mg/kg/injection, schedule: Q01DX010 (sc), vehicle: saline with Tween-80
  T/C: 62 % of control
dose: 800.0 mg/kg/injection, schedule: Q01DX010 (sc), vehicle: saline with Tween-80
  T/C: 59 % of control

## CN(C)N=Nc1cccc(C(N)=O)c1
dose: 25.0 mg/kg/injection, schedule: Q04DX003 (sc), vehicle: Klucel (hydroxypropylcellulose) (HPC)
  T/C: 72 % of control
dose: 50.0 mg/kg/injection, schedule: Q04DX003 (sc), vehicle: Klucel (hydroxypropylcellulose) (HPC)
  T/C: 47 % of control
dose: 100.0 mg/kg/injection, schedule: Q04DX003 (sc), vehicle: Klucel (hydroxypropylcellulose) (HPC)
  T/C: 7 % of control and 15 % of control
dose: 200.0 mg/kg/injection, schedule: Q04DX003 (sc), vehicle: Klucel (hydroxypropylcellulose) (HPC)
  T/C: 4 % of control and 29 % of control
dose: 400.0 mg/kg/injection, schedule: Q04DX003 (sc), vehicle: Klucel (hydroxypropylcellulose) (HPC)
  T/C: -61 % of control

## O=c1c(O)c(-c2cc(O)c(O)c(O)c2)oc2cc(O)cc(O)c12
dose: 6.0 mg/kg/injection, schedule: Q04DX003 (sc), vehicle: saline with Tween-80
  T/C: 93 % of control
dose: 12.0 mg/kg/injection, schedule: Q04DX003 (sc), vehicle: saline with Tween-80
  T/C: 99 % of control
dose: 24.0 mg/kg/injection, schedule: Q04DX003 (sc), vehicle: saline with Tween-80
  T/C: 92 % of control
dose: 48.0 mg/kg/injection, schedule: Q04DX003 (sc), vehicle: saline with Tween-80
  T/C: 96 % of control
[1]
  T/C: 100 % of control
[2]
  T/C: 83 % of control
dose: 200.0 mg/kg/injection, schedule: Q04DX003 (sc), vehicle: saline with Tween-80
  T/C: 69 % of control
[3]
  T/C: 94 % of control

## CCN1/C(=C/C(C)=C/c2sc3ccc4ccccc4c3[n+]2CC)Sc2ccc3ccccc3c21
dose: 0.75 mg/kg/injection, schedule: Q04DX003 (sc), vehicle: Klucel (hydroxypropylcellulose) (HPC)
  T/C: 67 % of control
dose: 1.5 mg/kg/injection, schedule: Q04DX003 (sc), vehicle: Klucel (hydroxypropylcellulose) (HPC)
  T/C: 112 % of control
dose: 3.0 mg/kg/injection, schedule: Q04DX003 (sc), vehicle: Klucel (hydroxypropylcellulose) (HPC)
  T/C: 76 % of control
dose: 6.0 mg/kg/injection, schedule: Q04DX003 (sc), vehicle: Klucel (hydroxypropylcellulose) (HPC)
  T/C: 96 % of control
dose: 12.0 mg/kg/injection, schedule: Q04DX003 (sc), vehicle: Klucel (hydroxypropylcellulose) (HPC)
  T/C: 112 % of control
dose: 48.0 mg/kg/injection, schedule: Q04DX003 (sc), vehicle: Klucel (hydroxypropylcellulose) (HPC)
  T/C: 81 % of control and 92 % of control

## CN(C)C(=O)c1cccc(COc2ccc(N3C(N)=NC(N)=NC3(C)C)cc2Cl)c1
dose: 6.25 mg/kg/injection, schedule: Q01DX010 (sc), vehicle: saline
  T/C: 85 % of control
dose: 12.5 mg/kg/injection, schedule: Q01DX010 (sc), vehicle: saline
  T/C: 57 % of control
dose: 25.0 mg/kg/injection, schedule: Q01DX010 (sc), vehicle: saline
  T/C: 25 % of control
dose: 25.0 mg/kg/injection, schedule: Q01DX010 (sc), vehicle: suspension in saline
  T/C: 91 % of control

## CC(=O)OC1C(O)C(C)OC(OC2C(OC(=O)C3CCC4C(C3)OC3(CC(OC(=O)/C=C/c5ccccc5)C(C)CO3)C43CO3)OC(C)C(O)C2OC(C)=O)C1O (centres undefined)
dose: 15.0 mg/kg/injection, schedule: Q04DX003 (sc), vehicle: distilled water + Tween-80
  T/C: 114 % of control
dose: 30.0 mg/kg/injection, schedule: Q04DX003 (sc), vehicle: distilled water + Tween-80
  T/C: 121 % of control
dose: 60.0 mg/kg/injection, schedule: Q04DX003 (sc), vehicle: distilled water + Tween-80
  T/C: 162 % of control

## COC(=O)C[C@](O)(CCCC(C)(C)O)C(=O)O[C@@H]1C(OC)=C[C@]23CCCN2CCc2cc4c(cc2[C@H]13)OCO4
dose: 0.5 mg/kg/injection, schedule: Q01DX010 (sc), vehicle: saline
  T/C: 115 % of control
dose: 1.0 mg/kg/injection, schedule: Q01DX010 (sc), vehicle: saline
  T/C: 61 % of control

## [I][Hg][CH2]C1COC([CH2][Hg][I])CO1 (centres undefined)
dose: 150.0 mg/kg/injection, schedule: Q04DX003 (sc), vehicle: saline with Tween-80
  T/C: 105 % of control
dose: 300.0 mg/kg/injection, schedule: Q04DX003 (sc), vehicle: saline with Tween-80
  T/C: 97 % of control
dose: 600.0 mg/kg/injection, schedule: Q04DX003 (sc), vehicle: saline with Tween-80
  T/C: 80 % of control
dose: 1200.0 mg/kg/injection, schedule: Q04DX003 (sc), vehicle: saline with Tween-80
  T/C: 97 % of control

## Oc1cc2c3c(c1)c1cc4c(cc1c[n+]3CC2)OCO4
dose: 25.0 mg/kg/injection, schedule: Q04DX003 (sc), vehicle: water
  T/C: 102 % of control
dose: 50.0 mg/kg/injection, schedule: Q04DX003 (sc), vehicle: water
  T/C: 124 % of control
dose: 100.0 mg/kg/injection, schedule: Q04DX003 (sc), vehicle: water
  T/C: 93 % of control
dose: 200.0 mg/kg/injection, schedule: Q04DX003 (sc), vehicle: water
  T/C: 103 % of control

## COc1c(CNC(=O)CCl)cc2[nH]c(C)cc2c1CNC(=O)CCl
dose: 100.0 mg/kg/injection, schedule: Q01DX010 (sc), vehicle: Klucel (hydroxypropylcellulose) (HPC)
  T/C: 76 % of control
dose: 200.0 mg/kg/injection, schedule: Q01DX010 (sc), vehicle: Klucel (hydroxypropylcellulose) (HPC)
  T/C: 52 % of control
dose: 300.0 mg/kg/injection, schedule: Q04DX003 (sc), vehicle: Klucel (hydroxypropylcellulose) (HPC)
  T/C: 91 % of control
dose: 400.0 mg/kg/injection, schedule: Q01DX010 (sc), vehicle: Klucel (hydroxypropylcellulose) (HPC)
  T/C: 37 % of control
dose: 600.0 mg/kg/injection, schedule: Q04DX003 (sc), vehicle: Klucel (hydroxypropylcellulose) (HPC)
  T/C: 90 % of control
dose: 1200.0 mg/kg/injection, schedule: Q04DX003 (sc), vehicle: Klucel (hydroxypropylcellulose) (HPC)
  T/C: 68 % of control

## NC(=O)c1[nH]nc(C2OC(CO)C(O)C2O)c1O (centres undefined)
dose: 0.62 mg/kg/injection, schedule: Q04DX003 (sc), vehicle: saline
  T/C: 77 % of control
dose: 1.25 mg/kg/injection, schedule: Q04DX003 (sc), vehicle: saline
  T/C: 65 % of control
dose: 2.5 mg/kg/injection, schedule: Q04DX003 (sc), vehicle: saline
  T/C: 109 % of control
dose: 5.0 mg/kg/injection, schedule: Q04DX003 (sc), vehicle: saline
  T/C: 78 % of control

## CC1=C(/C=C/C(C)=C/C=C/C(C)=C/CO)C(C)(C)CCC1
[1]
  T/C: 105 % of control
[2]
  T/C: 150 % of control
[3]
  T/C: 111 % of control

## OCC1OC(n2cnc3cncnc32)C(O)C1O (centres undefined)
dose: 12.5 mg/kg/injection, schedule: Q04DX003 (sc), vehicle: saline
  T/C: 89 % of control
dose: 25.0 mg/kg/injection, schedule: Q04DX003 (sc), vehicle: saline
  T/C: 118 % of control
dose: 50.0 mg/kg/injection, schedule: Q04DX003 (sc), vehicle: saline
  T/C: 69 % of control

## COc1cccc2c1C(=O)c1c(O)c3c(c(O)c1C2=O)C[C@@](O)(C(=O)CO)C[C@@H]3OC1CC(N)CC(C)O1 (some centres undefined)
dose: 1.5 mg/kg/injection, schedule: Q01DX010 (sc), vehicle: water
  T/C: 23 % of control
